Assays:
[1] = Protein binding to 6% egg albumin at 20 ug/ml; conditions: read-out: PPB (converted)
[2] = Half life in PBS at pH 7.4 by spectrophotometric analysis; format: ADME
[3] = Solubility of the compound in ethanol at 5 mg; format: physicochemical
[4] = Solubility of the compound in ethyl acetate at 5 mg; format: physicochemical
[5] = Solubility of the compound in DMF at 5 mg; format: physicochemical
[6] = Prodrug activation in simulated gastric fluid assessed as dexibuprofen regeneration rate at 10 mg by HPLC analysis; conditions: in vitro
[7] = Solubility of the compound in chloroform at 5 mg; format: physicochemical
[8] = Solubility of the compound in 0.1 N HCl at 5 mg; format: physicochemical; conditions: buffer
[9] = Half life in 80% Homo sapiens (human) plasma at pH 7.4 at 10 mg; format: ADME, cell-free; conditions: 80% human plasma
[10] = Solubility of the compound in 0.1 N NaOH at 5 mg; format: physicochemical
[11] = Solubility of the compound in DMF; format: physicochemical
[12] = Solubility of the compound in 0.1 N NaOH; format: physicochemical
[13] = Solubility of the compound in ethanol; format: physicochemical
[14] = Solubility of the compound in chloroform; format: physicochemical
[15] = Solubility of the compound in ethyl acetate; format: physicochemical
[16] = Solubility of the compound in 0.1 N HCl; format: physicochemical; conditions: buffer

Compound | fraction unbound at 20 ug/ml [1] | half-life [2] [h] | solubility [3] | solubility [4] | solubility [5] | Drug metabolism [6] | solubility [7] | solubility [8] | half-life [9] [h] | solubility [10] | solubility [11] | solubility [12] | solubility [13] | solubility [14] | solubility [15] | solubility [16]
CC(C)Cc1ccc(C(C)C(=O)OC(C)C)cc1 (stereo unspecified) | 0.35 | 2.1 | soluble | soluble | soluble | Not Active | soluble | Insoluble | 0.65 | soluble |  |  |  |  |  | 
CCCCOC(=O)C(C)c1ccc(CC(C)C)cc1 (stereo unspecified) | 0.65 | 2.1 | soluble | soluble | soluble | Not Active | soluble | Insoluble | 0.483 | soluble |  |  |  |  |  | 
CCC(C)OC(=O)C(C)c1ccc(CC(C)C)cc1 (stereo unspecified) | 0.33 | 2.1 | soluble | soluble | soluble | Not Active | soluble | Insoluble | 0.65 | soluble |  |  |  |  |  | 
CC(C)Cc1ccc(C(C)C(=O)OCc2ccccc2)cc1 (stereo unspecified) | 0.63 | 2.1 | soluble | soluble | soluble | Not Active | soluble | Insoluble | 0.65 | soluble |  |  |  |  |  | 
CC(C)Cc1ccc(C(C)C(=O)OCC(O)CO)cc1 (stereo unspecified) | 0.77 | 2.1 | soluble | soluble | soluble | Not Active | soluble | Insoluble | 0.483 | soluble |  |  |  |  |  | 
COC(=O)CNC(=O)C(C)c1ccc(CC(C)C)cc1 (stereo unspecified) | 0.76 | 2.58 | soluble | soluble | soluble | Not Active | soluble | Insoluble | 0.883 | soluble |  |  |  |  |  | 
COC(=O)C(C)NC(=O)C(C)c1ccc(CC(C)C)cc1 (stereo unspecified) | 0.64 | 2.58 | soluble | soluble | soluble | Not Active | soluble | Insoluble | 0.883 | soluble |  |  |  |  |  | 
COC(=O)C(NC(=O)C(C)c1ccc(CC(C)C)cc1)C(C)C (stereo unspecified) | 0.55 | 3.3 | soluble | soluble | soluble | Not Active | soluble | Insoluble | 0.883 | soluble |  |  |  |  |  | 
COC(=O)C(CC(C)C)NC(=O)C(C)c1ccc(CC(C)C)cc1 (stereo unspecified) | 0.49 | 3.16 | soluble | soluble | soluble | Not Active | soluble | Insoluble | 0.883 | soluble |  |  |  |  |  | 
COC(=O)C(Cc1ccccc1)NC(=O)C(C)c1ccc(CC(C)C)cc1 (stereo unspecified) | 0.53 | 2.97 | soluble | soluble | soluble | Not Active | soluble | Insoluble | 0.883 | soluble |  |  |  |  |  | 
CC(C)Cc1ccc([C@H](C)C(=O)O)cc1 [DEXIBUPROFEN] |  |  |  |  |  |  |  |  |  |  | soluble | soluble | soluble | soluble | soluble | Insoluble

Reference: ChEMBL document CHEMBL3046468, “Synthesis, characterization and in vitro hydrolysis studies of ester and amide prodrugs of dexibuprofen” (Med Chem Res, 2012)
